Experimental data: patent publication US7390806B2, “Antibiotics containing borinic acid complexes and methods of use” (Anacor Pharmaceuticals, Inc., priority 2002, dated 2008)
In brackets after ≈: the same amount, converted by molar mass. Like-named read-outs stand apart in the source and are kept apart here.

Experiments:
[1] = tested on: S. pneumoniae ATCC 6301; assay: MIC determination, S. pneumoniae ATCC 6301; type: cell-based, Streptococcus pneumoniae; details: for MIC S. pneumoniae ATCC 6301: Table 1
[2] = tested on: M. catarrhalis ATCC 25238; assay: MIC determination, M. catarrhalis ATCC 25238; type: cell-based; details: for MIC M. catarrhalis ATCC 25238: Table 1
[3] = tested on: E. faecalis ATCC 29212; assay: MIC determination, E. faecalis ATCC 29212; type: cell-based, Enterococcus faecalis; details: for MIC: Enterococcus faecalis
[4] = tested on: S. aureus ATCC 29213; assay: MIC determination, S. aureus ATCC 29213; type: cell-based, Staphylococcus aureus; details: for MIC: Staphylococcus aureus
[5] = tested on: S. epidermidis ATCC 12228; assay: MIC determination, S. epidermidis ATCC 12228; type: cell-based, Staphylococcus epidermidis; details: for MIC: Staphylococcus epidermidis
[6] = tested on: E. faecium CT-26; assay: MIC determination, E. faecium CT-26; type: cell-based, Enterococcus faecium; details: for MIC: Enterococcus faecium
[7] = ATCC29212, Table 1, read-out: MIC E. faecalis ATCC 29212
[8] = ATCC29213, Table 1, read-out: MIC S. aureus ATCC 29213
[9] = ATCC12228, Table 1, read-out: MIC S. epidermidis ATCC 12228
[10] = CT26, Table 1, read-out: MIC E. faecium CT-26

Compound | MIC S. pneumoniae ATCC 6301 [1] | MIC M. catarrhalis ATCC 25238 [2] | MIC E. faecalis ATCC 29212 ([3]; Table 1) | MIC S. aureus ATCC 29213 ([4]; Table 1) | MIC S. epidermidis ATCC 12228 ([5]; Table 1) | MIC E. faecium CT-26 ([6]; Table 1) | further results
Oc1cccc2cccnc12 [Compound 85, 8-hydroxyquinoline] | 2 micrograms per ml | 2 micrograms per ml | 4 micrograms per ml | 2 micrograms per ml | 1 micrograms per ml | 4 micrograms per ml | 
Bis(ethynyl)borinic acid 8-Hydroxyquinoline [Compound 44] | 1 micrograms per ml | 0.25 micrograms per ml | 16 micrograms per ml | 1 micrograms per ml | 1 micrograms per ml | 2 micrograms per ml | 
N#Cc1ccc(OB(c2cccc(Cl)c2)c2cccc(Cl)c2)c2ncccc12 [Compound 19, Bis(3-Chlorophenyl)borinic acid 5-cyano-8-hydroxyquinoline ester] | 4 micrograms per ml | 0.5 micrograms per ml | 16 micrograms per ml | 0.25 micrograms per ml | 2 micrograms per ml | 4 micrograms per ml | 
Oc1cccc2cccnc12 [Compound 95, 8-hydroxyquinoline] | 2 micrograms per ml | 1 micrograms per ml | 8 micrograms per ml | 2 micrograms per ml | 1 micrograms per ml | 2 micrograms per ml | 
Nc1ccc2cccc(O)c2n1 [Compound 17] |  |  |  |  |  |  | MIC ([1]; Streptococcus pneumoniae, ATCC6301, read-out: MIC S. pneumoniae ATCC 6301): 2 µg/mL (≈ 12.5 µM); MIC ([2]; Moraxella catarrhalis, ATCC25238, read-out: MIC M. catarrhalis ATCC 25238): 2 µg/mL (≈ 12.5 µM); MIC ([3]; ATCC29212, read-out: MIC E. faecalis ATCC 29212): 8 µg/mL (≈ 49.9 µM); MIC ([4]; ATCC29213, read-out: MIC S. aureus ATCC 29213): 0.25 µg/mL (≈ 1.56 µM); MIC ([5]; ATCC12228, read-out: MIC S. epidermidis ATCC 12228): 2 µg/mL (≈ 12.5 µM); MIC ([6]; CT26, read-out: MIC E. faecium CT-26): 8 µg/mL (≈ 49.9 µM)
Oc1cccc2cccnc12 [Compound 20, 8-hydroxyquinoline] | 2 micrograms per ml | 2 micrograms per ml | 8 micrograms per ml | 0.25 micrograms per ml | 1 micrograms per ml | 4 micrograms per ml | 
Oc1cccc2cccnc12 [Compound 96, 8-hydroxyquinoline] | 2 micrograms per ml | 1 micrograms per ml | 8 micrograms per ml | 2 micrograms per ml | 1 micrograms per ml | 2 micrograms per ml | 
Oc1cccc2cccnc12 [Compound 27, 8-hydroxyquinoline] | 1 micrograms per ml | 1 micrograms per ml | 8 micrograms per ml | 0.5 micrograms per ml | 1 micrograms per ml | 2 micrograms per ml | 
Oc1cccc2cccnc12 [Compound 48, 8-hydroxyquinoline] | 1 micrograms per ml | 2 micrograms per ml | 8 micrograms per ml | 1 micrograms per ml | 1 micrograms per ml | 2 micrograms per ml | 
Oc1cccc2cccnc12 [Compound 69, 8-hydroxyquinoline] | 2 micrograms per ml | 1 micrograms per ml | 64 micrograms per ml | 2 micrograms per ml | 1 micrograms per ml | 4 micrograms per ml | 
Oc1cccc2cccnc12 [Compound 74, 8-hydroxyquinoline] | 2 micrograms per ml | 1 micrograms per ml | 32 micrograms per ml | 2 micrograms per ml | 1 micrograms per ml | 2 micrograms per ml | 
Oc1c(Cl)cc(Cl)c2cccnc12 [Compound 71] | 8 micrograms per ml | 0.12 micrograms per ml | 64 micrograms per ml | 2 micrograms per ml | 2 micrograms per ml | 4 micrograms per ml | 
Oc1cccc2cccnc12 [Compound 84, 8-hydroxyquinoline] | 2 micrograms per ml | 4 micrograms per ml | 8 micrograms per ml | 2 micrograms per ml | 1 micrograms per ml | 4 micrograms per ml | 
C#CB(Oc1cccc2cccnc12)c1ccccc1Cl [Compound 43, (2-Chlorophenyl)ethynylborinic acid 8-Hydroxyquinoline ester] | 1 micrograms per ml | 1 micrograms per ml | 8 micrograms per ml | 1 micrograms per ml | 1 micrograms per ml | 2 micrograms per ml | 
Oc1cccc2cccnc12 [Compound 46, 8-hydroxyquinoline] | 1 micrograms per ml | 1 micrograms per ml | 4 micrograms per ml | 1 micrograms per ml | 1 micrograms per ml | 1 micrograms per ml | 
Oc1cccc2cccnc12 [Compound 81, 8-hydroxyquinoline] | 2 micrograms per ml | 2 micrograms per ml | 8 micrograms per ml | 2 micrograms per ml | 1 micrograms per ml | 4 micrograms per ml | 
CB(Oc1cccc2cccnc12)c1cccs1 [Compound 26, (2-Thienyl)methylborinic acid 8-hydroxyquinoline ester] |  |  | 4 micrograms per ml | 0.5 micrograms per ml | 1 micrograms per ml | 4 micrograms per ml | 
Oc1cccc2cccnc12 [Compound 38, 8-hydroxyquinoline] | 2 micrograms per ml | 1 micrograms per ml | 16 micrograms per ml | 1 micrograms per ml | 1 micrograms per ml | 2 micrograms per ml | 
Oc1cccc2cccnc12 [Compound 100, 8-hydroxyquinoline] | 2 micrograms per ml | 1 micrograms per ml | 4 micrograms per ml | 2 micrograms per ml | 1 micrograms per ml | 2 micrograms per ml | 
Oc1ccc(F)c2cccnc12 [Compound 57] | 4 micrograms per ml | 1 micrograms per ml | 16 micrograms per ml | 2 micrograms per ml | 2 micrograms per ml | 4 micrograms per ml | 
4-hydroxybenzimidazole [Compound 120] |  |  |  |  |  |  | MIC E. faecalis ATCC 29212 ([3]; Table 2): 8 micrograms per ml; MIC S. aureus ATCC 29213 ([4]; Table 2): 0.125 micrograms per ml; MIC S. epidermidis ATCC 12228 ([5]; Table 2): 4 micrograms per ml; MIC E. faecium CT-26 ([6]; Table 2): 8 micrograms per ml
Oc1cccc2cccnc12 [Compound 30, 8-hydroxyquinoline] |  |  | 2 micrograms per ml | 1 micrograms per ml | 0.5 micrograms per ml | 2 micrograms per ml | 
Oc1ccc(F)c2cccnc12 [Compound 58] | 2 micrograms per ml | 0.5 micrograms per ml | 8 micrograms per ml | 2 micrograms per ml | 2 micrograms per ml | 4 micrograms per ml | 
O=C(O)c1cc(O)c2ccccc2n1 [Compound 31] |  |  |  |  |  |  | MIC [3, 7]: 2 µg/mL (≈ 10.6 µM); MIC [4, 8]: 1 µg/mL (≈ 5.29 µM); MIC [5, 9]: 1 µg/mL (≈ 5.29 µM); MIC [6, 10]: 1 µg/mL (≈ 5.29 µM)
Oc1cccc2nc[nH]c12 [Compound 11, 4-hydroxybenzimidazole] |  |  |  |  |  |  | MIC [3, 7]: 8 µg/mL (≈ 59.6 µM); MIC [4, 8]: 0.125 µg/mL (≈ 0.932 µM); MIC [5, 9]: 4 µg/mL (≈ 29.8 µM); MIC [6, 10]: 8 µg/mL (≈ 59.6 µM)
Oc1cccc2cccnc12 [Compound 52, 8-hydroxyquinoline] |  |  | 8 micrograms per ml | 2 micrograms per ml | 4 micrograms per ml | 16 micrograms per ml | 
Oc1cccc2cccnc12 [Compound 76, 8-hydroxyquinoline] |  |  | 8 micrograms per ml | 2 micrograms per ml | 1 micrograms per ml | 4 micrograms per ml | 
